Values of other authors in patent publication US10995060B2, “Amorphous Trisodium Sacubitril Valsartan and process for its preparation” (priority 2016, dated 2021).
Where a name gives a salt, the structure may show the parent alone. Read-outs that look alike come from different tables or passages of the source.

Assays:
[1] = for Crystalline state / polymorph stability after exposure: 80° C at 0% RH and 75% RH for 3 days; for Result after loading of the sample at 80° C./0% RH / Result after loading of the sample at 80° C./75% RH: solid form by X-ray powder analysis, 3 days
[2] = crystal powder of Example 11 of WO 200206253

Molecule | Crystalline state / polymorph stability after exposure [1] | Result after loading of the sample at 80° C./0% RH [1] | Result after loading of the sample at 80° C./75% RH [1] | Hygroscopicity [2] | Result after loading of the sample at 80° C./75% RH ([1]; listed as sodium salt of Sacubitril)
CCOC(=O)[C@H](C)C[C@@H](Cc1ccc(-c2ccccc2)cc1)NC(=O)CCC(=O)O [calcium salt of sacubitril] | did not change | Crystalline sample(form I)I | Crystalline sample(form I)I |  | 
Hydrate of valsartan disodium salt (2.4 ě 1.0 mole H2O) |  |  |  | slightly hygroscopic | 
CCOC(=O)[C@H](C)C[C@@H](Cc1ccc(-c2ccccc2)cc1)NC(=O)CCC(=O)[O-].[Na+] [sodium salt of sacubitril] | high rate of polymorph instability | Semicrystalline phase | Amorphous sample |  | completely amorphous
